According to patent US11814372B2, “Agonists of EPHA and their uses” (CASE WESTERN RESERVE UNIVERSITY, priority 2017, dated 2023):

Columns and labels:
[1] = biological target: T1, EphA1 (Homo sapiens, UniProt P21709); assay: Eph receptor activation in HEK 293 cells overexpressing EphA1; type: cell-based; conditions: HEK 293 cells overexpressing EphA1, same concentrations, 60 minutes
T1 construct: expressed in transfected cells; host or cells: HEK 293
T1 sequence (P21709 26-976): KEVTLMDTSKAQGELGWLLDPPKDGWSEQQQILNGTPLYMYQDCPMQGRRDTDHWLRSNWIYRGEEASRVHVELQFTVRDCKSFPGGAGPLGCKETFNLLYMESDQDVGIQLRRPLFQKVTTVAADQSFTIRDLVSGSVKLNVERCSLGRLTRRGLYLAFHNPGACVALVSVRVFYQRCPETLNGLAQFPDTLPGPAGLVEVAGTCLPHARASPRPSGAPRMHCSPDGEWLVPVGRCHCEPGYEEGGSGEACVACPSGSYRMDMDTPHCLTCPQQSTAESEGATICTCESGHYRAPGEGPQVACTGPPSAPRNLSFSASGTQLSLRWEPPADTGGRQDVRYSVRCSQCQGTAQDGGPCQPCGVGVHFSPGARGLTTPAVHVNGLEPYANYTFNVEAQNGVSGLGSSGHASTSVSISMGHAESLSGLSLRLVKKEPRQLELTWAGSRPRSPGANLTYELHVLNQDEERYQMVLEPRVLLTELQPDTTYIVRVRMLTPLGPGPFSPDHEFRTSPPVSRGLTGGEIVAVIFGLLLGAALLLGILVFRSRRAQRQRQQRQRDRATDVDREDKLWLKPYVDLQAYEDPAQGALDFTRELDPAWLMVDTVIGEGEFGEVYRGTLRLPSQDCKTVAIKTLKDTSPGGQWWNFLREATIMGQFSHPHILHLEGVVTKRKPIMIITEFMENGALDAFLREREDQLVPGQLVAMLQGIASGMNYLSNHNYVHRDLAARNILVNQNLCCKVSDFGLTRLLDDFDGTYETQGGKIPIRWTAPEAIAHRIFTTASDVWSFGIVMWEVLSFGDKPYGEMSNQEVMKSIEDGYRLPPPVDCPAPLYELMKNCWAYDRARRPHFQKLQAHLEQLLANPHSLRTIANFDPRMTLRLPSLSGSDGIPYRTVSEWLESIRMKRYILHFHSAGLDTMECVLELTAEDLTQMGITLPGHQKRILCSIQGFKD
Description: Cells were plated in 24-well dishes at a density of 100,000 cells/well and grown for 24 hours prior to stimulation with appropriate compounds and ephrins for the given amounts of time. Compounds were prepared in DMSO at 500 times the final concentrations and 0.2% DMSO was used as vehicle control. Following treatment, cells were lysed directly in SDS Gel Loading Buffer and immunoblotted as described previously. […] For this purpose, HEK 293 cell lines overexpressing EphA1, EphA2, EphA3, EphA4, and EphB3 kinases were utilized.

[2] = biological target: T2, EphA4 LBD (Homo sapiens, UniProt P54764); assay: Isothermal titration calorimetry (ITC) binding; conditions: read-out: dissociation constant (KD)
T2 construct: made in house
T2 sequence (P54764 29-209, species assumed): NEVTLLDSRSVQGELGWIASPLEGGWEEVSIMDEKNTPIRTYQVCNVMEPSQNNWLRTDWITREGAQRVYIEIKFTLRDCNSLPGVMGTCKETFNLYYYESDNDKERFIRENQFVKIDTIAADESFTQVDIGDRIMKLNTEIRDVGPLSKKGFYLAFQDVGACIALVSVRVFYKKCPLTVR
Description: Production of the 181-residue EphA4 ligand binding domain (LBD, residues 29-209) and isothermal titration calorimetry (ITC) experiments were performed as previously described. […] By superimposing HSQC spectra, the shifted HSQC peaks could be identified and further assigned to the corresponding residues of the EphA4 ectodomain. The degree of perturbation was measured by an integrated chemical shift index (CSI) calculated by the formula [(ΔH)^2+(ΔN)^2/5]^1/2.

[3] = tested on: ERK1/2 and Akt; assay: Inhibition of ERK1/2 and Akt activation in A172-A2 glioma cells (immunoblot); type: cell-based; conditions: 50 μM and 100 μM, 90 minutes
Description: (§2) Cells were plated in 24-well dishes at a density of 100,000 cells/well and grown for 24 hours prior to stimulation with appropriate compounds and ephrins for the given amounts of time. Compounds were prepared in DMSO at 500 times the final concentrations and 0.2% DMSO was used as vehicle control. Following treatment, cells were lysed directly in SDS Gel Loading Buffer and immunoblotted as described previously. […] For immunoprecipitation, 300,000 cells/well were plated in 6-well dishes and lysed in modified RIPA Buffer (20 mM Tris-HCl pH 7.4, 20 mM NaF, 150 mM NaCl, 10% glycerol, 0.1% SDS, 0.5% DCA, 2 mM EDTA, 1% Triton X-100) following treatment. Either 10 ag of ephrin-A1-Fc, or 4 mg of EphA2 mouse monoclonal antibody (Clone D7, Millipore) were used, and mouse IgG was used as a negative control for EphA2 IP. […] We first tested this by utilizing the A172 glioma cells engineered to overexpress EphA2 receptor (A172-A2).

[4] = tested on: PC3-DAB2IP KD cells; assay: Haptotactic cell migration toward fibronectin (modified Boyden chamber); type: cell-based, human; conditions: 4 hours
Text: One of the well-established functions of Eph receptors is the ligand-dependent repulsive guidance of cell migration. As a ligand-mimicking agonist for EphA2, doxazosin is expected to activate EphA2 on tumor cells and repulse migrating tumor cells in vitro. To test this possibility, we first investigated the effects of doxazosin on integrin-mediated haptotactic cell migration toward fibronectin in a modified Boyden chamber cell migration assay. […] The inhibitory effects were observed when doxazosin was presented either in the bottom chamber, or in both top and bottom chambers in the Transwell assay system. […] Therefore, doxazosin can recapitulate a key function attributed to its native ligands, i.e., negative regulation of cell migration.

[5] = tested on: MDA-MB-231, A172-A2 and PC3-DAB2IP KD cells; assay: Chemotactic cell migration toward hepatocyte growth factor (HGF); type: cell-based; conditions: all three cell lines; lesser degree than in the haptotactic assay
[6] = biological target: T3, EphA2 (Homo sapiens, UniProt P29317); assay: Activation of endogenous EphA2 in PC-3 cells (pEphA/B immunoblot); type: cell-based; design: host or cells: PC-3; conditions: endogenous EphA2, 30 minutes
T3 sequence (P29317 24-976): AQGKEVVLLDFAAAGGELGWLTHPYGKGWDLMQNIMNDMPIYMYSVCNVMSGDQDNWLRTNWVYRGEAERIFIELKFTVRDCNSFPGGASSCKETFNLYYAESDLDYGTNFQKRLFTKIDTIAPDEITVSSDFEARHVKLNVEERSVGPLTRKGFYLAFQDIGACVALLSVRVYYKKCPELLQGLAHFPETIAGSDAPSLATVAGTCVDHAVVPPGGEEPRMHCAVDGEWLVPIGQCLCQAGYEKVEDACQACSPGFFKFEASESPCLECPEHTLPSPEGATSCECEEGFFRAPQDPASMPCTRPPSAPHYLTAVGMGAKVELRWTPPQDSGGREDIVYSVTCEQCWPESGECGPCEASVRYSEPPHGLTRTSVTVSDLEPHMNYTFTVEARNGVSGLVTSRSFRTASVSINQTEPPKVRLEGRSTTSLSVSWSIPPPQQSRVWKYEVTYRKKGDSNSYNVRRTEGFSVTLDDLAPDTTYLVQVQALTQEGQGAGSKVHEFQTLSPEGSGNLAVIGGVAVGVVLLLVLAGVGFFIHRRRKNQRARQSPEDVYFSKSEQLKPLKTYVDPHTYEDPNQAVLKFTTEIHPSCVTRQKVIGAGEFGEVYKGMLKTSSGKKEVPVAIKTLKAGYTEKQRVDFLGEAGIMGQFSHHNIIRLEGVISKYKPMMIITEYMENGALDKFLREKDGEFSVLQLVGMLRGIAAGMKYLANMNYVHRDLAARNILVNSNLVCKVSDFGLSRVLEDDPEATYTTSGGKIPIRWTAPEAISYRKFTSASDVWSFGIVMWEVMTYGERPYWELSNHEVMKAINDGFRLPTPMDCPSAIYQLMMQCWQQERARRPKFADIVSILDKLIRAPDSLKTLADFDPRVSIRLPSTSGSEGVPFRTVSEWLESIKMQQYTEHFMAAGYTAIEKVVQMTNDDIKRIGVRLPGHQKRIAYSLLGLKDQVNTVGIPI
Description: (§1) Cells were plated in 24-well dishes at a density of 100,000 cells/well and grown for 24 hours prior to stimulation with appropriate compounds and ephrins for the given amounts of time. Compounds were prepared in DMSO at 500 times the final concentrations and 0.2% DMSO was used as vehicle control. Following treatment, cells were lysed directly in SDS Gel Loading Buffer and immunoblotted as described previously. Immunoprecipitation and immunofluorescence staining was performed as described. For immunoprecipitation, 300,000 cells/well were plated in 6-well dishes and lysed in modified RIPA Buffer (20 mM Tris-HCl pH 7.4, 20 mM NaF, 150 mM NaCl, 10% glycerol, 0.1% SDS, 0.5% DCA, 2 mM EDTA, 1% Triton X-100) following treatment. Either […] of ephrin-A1-Fc, or […] of EphA2 mouse monoclonal antibody (Clone D7, Millipore) were used, and mouse IgG was used as a negative control for EphA2 IP.
To determine whether the EphA2 agonist activity of doxazosin is cell-context specific, we evaluated the effects of doxazosin on additional cell types. We first utilized HEK 293 cells overexpressing EphA2 (HEK 293-A2) that we described previously. […] Next we tested PC-3 cells that express high levels of endogenous EphA2 receptor. […] We next evaluated the time-course of activation in both MDA-231-A2 and HEK 293-A2 cells upon treatment with a single 50 μM dose of doxazosin.

[7] = biological target: T3, EphA2; assay: EphA2 activation in A172-A2 glioma cells (immunoprecipitation, immunoblot); type: cell-based; design: expressed in transfected cells; host or cells: A172 (A172-A2)
Description: as §2

[8] = biological target: T3, EphA2; assay: EphA2 receptor internalization in U373-A2 glioma cells (immunofluorescence); type: cell-based; design: expressed in transfected cells; host or cells: MDA-MB-231 (MDA-231-A2), HEK 293 (HEK 293-A2), A172 (A172-A2), U373 (U373-A2); conditions: 60 min, 50 μM DZ or 1 μg/ml ephrin-A1-Fc
Description: as §1
Similar to other receptor tyrosine kinases, activation of the EphA2 receptor by its ligand, ephrin-A1, results in receptor internalization and eventual degradation. […] This was first performed using the U373 glioma cell line engineered to overexpress EphA2.

SMILES: COc1cc2nc(N3CCN(C(=O)C4COc5ccccc5O4)CC3)nc(N)c2cc1OC (stereo not drawn) [doxazosin]
- EphA1 activation, Eph receptor panel [1]: no activation of EphA1
- Kd [2]: 12.4 µM
- inhibition of Akt and ERK1/2 activation [3]: significant inhibition of Akt and ERK1/2 activation
- haptotactic cell migration toward fibronectin [4]: dose-dependent inhibition of cell migration
- chemotactic cell migration toward HGF [5]: dose-dependent inhibition
- concentration at which EphA2 activation became evident [6]: 50 µM
- concentration at which EphA2 activation starts ([7]; A172-A2 glioma cells, 90 minutes): around 25 μM
- EphA2 level after treatment ([7]; A172 cells): degradation of EphA2
- EphA2 internalization [8]: significant EphA2 internalization
